Laboratory results as given in patent publication US4983740A, “Process for 1,4-dihydropyridine compounds” (Adir et Compagnie, priority 1986, dated 1991).

Legend:
[1] = system: conscious dogs with renal hypertension; experiment: Study in conscious dogs with renal hypertension (oral, mean arterial pressure); assay type: in vivo, dog (Mongol); settings: digestive route
From the text: Study in Conscious Dogs with Renal Hypertension
Mongol dogs weighing 20 to 25 kg are used. A Silastic® catheter, inserted under anesthesia at the level of the abdominal aorta, left in position permanently, enables the arterial pressure to be determined subsequently in the conscious animal.
Arterial hypertension is induced by a second operation, under anesthesia, consisting in constricting the left renal artery with a clip, decreasing the flow rate therein by approximately 70%, the left kidney is also covered with a latex capsule in order to restrict circulatory compensations; the contralateral kidney is left in position.
The systolic, diastolic and mean arterial pressures are determined with a Statham® P23 pressure sensor attached to the Silastic® catheter and connected to a Gould® "pressure-processor". The compounds are tested in animals which became hypertensive in the conscious state at least one week after the second operation. The arterial pressure is continuously recorded up to 7 hours after the treatment and then at 24 hours.
The compounds to be tested are administered by the digestive route through gastric tubing, in the form of a solution which may be aqueous, aqueous/alcoholic and the like, depending on the solubility of the products.
The doses administered are expressed in mg base per body weight kg.

[2] = system: conscious spontaneous hypertensive rats (SHR); experiment: Long-term studies in conscious spontaneous hypertensive rats (oral, single daily dose, systolic arterial pressure); assay type: in vivo, rat (SHR); settings: 1 mg/kg/d
Procedure: Long-term Studies in Conscious Spontaneous Hypertensive rats (SHR) Male rats weighing 280 to 300 g, aged 16 weeks, are used in this study. The systolic arterial pressure is determined with a Rhema multichannel 8,000® apparatus, according to the indirect method, at the tail of the animal. The compounds to be tested are administered orally, in a single daily dose. Determinations of arterial pressure are carried out each day just before the treatment. Amlodipine was also studied under the same conditions.

[3] = system: unanesthetized spontaneously hypertensive rats (SHR); experiment: Study in unanesthetized spontaneously hypertensive rats (intravenous, systolic blood pressure); assay type: in vivo, rat (SHR); settings: for Systolic blood pressure changes (ΔmmHg) after treatment, 1H 30 min / Systolic blood pressure changes (ΔmmHg) after treatment, 3H / Systolic blood pressure changes (ΔmmHg) after treatment, 6H: 0.1 mg/kg, intravenous
Procedure: Study in Unanesthetized Spontaneously Hypertensive Rats (SHR)
SHR male rats weighing 280 to 350 g and aged from 18 to 24 weeks are anaesthetized with imalgene® (150 mg/kg i.p.). Two polyethylene catheters are introduced, one into the abdominal aorta for the recording of hemodynamic parameters and the other into the jugular vein for the administration of the products. The catheters are taken through to neck level. The animals are used at least 48 hours after surgical intervention.
The systolic and diastolic abdominal bood pressures are recorded by means of a Statham P23XL transducer on a Gould ES 1000 recorder. The products are administered intravenously in a volume of 0.5 ml/kg. The doses administered of the test compounds are expressed in mg/kg of base. The blood pressure is recorded in continuous fashion up to 6 hours after the treatment.
The changes in systolic blood pressure after treatment are recorded in Table VIII.

rat aorta = experiment: In vitro activity in rat aorta stimulated by potassium ions; assay type: cell-based, rat (male Wistar); settings: 1 h; rat aorta rings, KCl 80 mM stimulation, cumulative doses at 60 minutes intervals
[4] = target: T1, dihydropyridine site associated with the calcium slow channel (Rattus norvegicus, UniProt Q02485); experiment: Affinity for the dihydropyridine binding site, displacement of [3H]-PN 200-110; design: species or system rat (Wistar); settings: for Ki: displacement of [3H]-PN 200-110, microsomal membranes of rat skeletal muscle
T1 construct: microsomal membrane preparations prepared from skeletal muscle of rat (Wistar) hind limbs; from tissue; host or cells: skeletal muscle of rat (Wistar) hind limbs, microsomal fraction
Procedure: Affinity for the Dihydropyridine Binding Site
This study was carried out on microsomal membrane preparations prepared from skeletal muscle of rat (Wistar) hind limbs.
The rats are killed by decapitation. The skeletal muscles are removed and washed in buffer I (20 mM MOPS/KOH pH 7.4, 0.3M sucrose, 1 mM EDTA, 0.1 mM iodoacetamide, 1 μM pepstatin A, 1 mg/l leupeptin and 0.1 μM PMSF). The muscles are then mechanically fragmented, taken up in 4 volumes of buffer I per gramme of tissue and homogenized.
The homogenate is then centrifuged for 10 minutes at 3,200 g, the pellets are removed and the supernatants are then centrifuged for 20 minutes at 15,000 g, and the supernatants are stirred for 15 minutes at 4° C. in buffer I containing 0.6M final KCl and then centrifgued for 45 minutes at 70,000 g.
The pellets are taken up in buffer I and homogenized in a Potter. The homogenates are centrifuged at 100,000 g for 45 minutes and the pellets thereby obtained correspond to the microsomal fraction used for the studies of binding and displacement.
The activity of the product is assessed by the displacement of [^3 H]-PN 200-110, bound specifically to its receptor associated with the calcium slow channel, by increasing concentrations of the test products. The value obtained (K0.5) for each of the products, which represents the concentration of the product displacing 50% of the [^3 H]-PN 200-110, permits calculation of a true dissociation constant (KI): [formula] where [L*] is the concentration of free [^3 H]-PN 200-110 and Kd the dissociation constant at equilibrium of the [^3 H]-PN 200-110 complex, determined by direct binding.
The KI values of the two products are recorded in Table VI

[5] = system: conscious spontaneous hypertensive rats (SHR); experiment: Short-term studies in conscious spontaneous hypertensive rats (oral, systolic arterial pressure); assay type: in vivo, rat (SHR)
Procedure: Short-term Studies in Conscious Spontaneous Hypertensive Rats (SHR)
Male spontaneous hypertensive rats weighing 270 to 320 g, aged 16 to 24 weeks, are anesthetized with ether. A polyethylene catheter is introduced into the femoral artery and moved forward to the level of the tail. The pressure in the femoral artery is recorded with a Statham® P23 sensor, on a Gould® 2400 recorder. The animals are treated at least one hour after the operation. The compounds are administered orally, in the dissolved form. The doses administered are expressed in mg/kg of base. The compounds of the invention were compared with amlodipine and with another 1,4-dihydropyridine derivative reference compound, nifedipine.

[6] = target: isolated rabbit mesenteric artery (Oryctolagus cuniculus, UniProt P15381); experiment: Study on isolated rabbit mesenteric artery contracted with calcium; assay type: cell-based, rabbit (New Zealand); settings: compound of example 50 versus its racemate
Procedure: Study on Isolated Rabbit Mesenteric Artery Contracted with Calcium
This test is performed on organs removed from male New Zealand rabbits weighing 2.5 to 3 kg, subjected to a water regimen for 18 hours before sacrifice.
After the animal is rapidly sacrificed, the mesenteric artery is removed and dissected into rings 2 mm long; the endothelium is removed mechanically.
After a stabilization period of 90 minutes, the preparations are subjected to a depolarizing medium (35 mM KCl) without calcium (0.1 mM EGTA) for 15 minutes.
A control series is prepared by adding cumulative doses of calcium to the bath every 6 minutes until a maximum of effect is produced. The preparations are then rinsed for a period of 15 minutes and the product is incubated for one hour before renewal of the calcium series.
A single concentration of the product is tested per organ.
The responses obtained in the presence of product are expressed as a percentage of the maximal value of the control series.
The pD'2 value is calculated according to the method of Van Rossum (1963).

T1 sequence (Q02485 whole entry): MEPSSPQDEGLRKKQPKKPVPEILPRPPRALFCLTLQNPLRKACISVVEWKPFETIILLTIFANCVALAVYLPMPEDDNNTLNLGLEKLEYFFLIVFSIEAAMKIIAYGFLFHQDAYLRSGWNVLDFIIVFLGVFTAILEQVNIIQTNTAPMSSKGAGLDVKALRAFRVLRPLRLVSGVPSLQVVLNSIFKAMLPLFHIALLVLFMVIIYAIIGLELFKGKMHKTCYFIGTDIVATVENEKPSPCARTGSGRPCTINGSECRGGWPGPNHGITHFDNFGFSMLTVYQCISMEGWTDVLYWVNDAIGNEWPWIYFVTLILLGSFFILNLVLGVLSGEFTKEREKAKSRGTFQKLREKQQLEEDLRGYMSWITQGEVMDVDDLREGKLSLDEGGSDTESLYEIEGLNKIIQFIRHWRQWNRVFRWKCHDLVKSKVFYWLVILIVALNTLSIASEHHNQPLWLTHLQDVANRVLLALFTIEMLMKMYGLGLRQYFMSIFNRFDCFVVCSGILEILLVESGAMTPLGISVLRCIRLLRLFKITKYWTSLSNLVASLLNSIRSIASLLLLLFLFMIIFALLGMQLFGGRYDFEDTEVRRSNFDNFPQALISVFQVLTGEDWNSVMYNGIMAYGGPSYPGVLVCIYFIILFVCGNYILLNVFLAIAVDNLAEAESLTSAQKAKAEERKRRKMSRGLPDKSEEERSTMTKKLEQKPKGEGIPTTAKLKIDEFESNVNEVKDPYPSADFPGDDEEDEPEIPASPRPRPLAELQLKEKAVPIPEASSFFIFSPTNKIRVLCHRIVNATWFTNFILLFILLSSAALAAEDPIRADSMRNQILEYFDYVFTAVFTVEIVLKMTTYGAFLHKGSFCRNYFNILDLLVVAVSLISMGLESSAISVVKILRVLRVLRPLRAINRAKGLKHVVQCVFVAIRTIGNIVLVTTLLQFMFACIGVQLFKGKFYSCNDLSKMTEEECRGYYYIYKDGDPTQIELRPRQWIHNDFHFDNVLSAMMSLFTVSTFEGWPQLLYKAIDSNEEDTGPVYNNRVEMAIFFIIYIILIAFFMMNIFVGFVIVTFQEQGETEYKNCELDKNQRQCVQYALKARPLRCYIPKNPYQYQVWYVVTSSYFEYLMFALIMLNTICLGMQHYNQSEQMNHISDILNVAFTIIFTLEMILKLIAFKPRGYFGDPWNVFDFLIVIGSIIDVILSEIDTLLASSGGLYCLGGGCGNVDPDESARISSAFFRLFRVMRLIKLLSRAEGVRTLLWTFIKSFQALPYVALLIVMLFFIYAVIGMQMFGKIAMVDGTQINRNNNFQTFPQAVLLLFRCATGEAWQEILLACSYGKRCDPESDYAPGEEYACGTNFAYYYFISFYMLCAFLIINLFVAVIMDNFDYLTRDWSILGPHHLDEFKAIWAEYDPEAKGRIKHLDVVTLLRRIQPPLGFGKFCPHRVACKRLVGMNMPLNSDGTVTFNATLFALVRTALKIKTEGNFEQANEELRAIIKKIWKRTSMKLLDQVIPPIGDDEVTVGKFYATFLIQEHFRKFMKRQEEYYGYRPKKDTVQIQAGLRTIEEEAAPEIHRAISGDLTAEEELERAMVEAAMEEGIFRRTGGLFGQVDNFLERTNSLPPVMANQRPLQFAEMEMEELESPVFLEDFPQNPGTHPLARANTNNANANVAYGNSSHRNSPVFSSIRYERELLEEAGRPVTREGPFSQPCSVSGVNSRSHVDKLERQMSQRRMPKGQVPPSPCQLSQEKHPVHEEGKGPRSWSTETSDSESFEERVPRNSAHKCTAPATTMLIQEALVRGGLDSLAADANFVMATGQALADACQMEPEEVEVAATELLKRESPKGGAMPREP
T1 sequence (P54290 25-945 partner limits assumed): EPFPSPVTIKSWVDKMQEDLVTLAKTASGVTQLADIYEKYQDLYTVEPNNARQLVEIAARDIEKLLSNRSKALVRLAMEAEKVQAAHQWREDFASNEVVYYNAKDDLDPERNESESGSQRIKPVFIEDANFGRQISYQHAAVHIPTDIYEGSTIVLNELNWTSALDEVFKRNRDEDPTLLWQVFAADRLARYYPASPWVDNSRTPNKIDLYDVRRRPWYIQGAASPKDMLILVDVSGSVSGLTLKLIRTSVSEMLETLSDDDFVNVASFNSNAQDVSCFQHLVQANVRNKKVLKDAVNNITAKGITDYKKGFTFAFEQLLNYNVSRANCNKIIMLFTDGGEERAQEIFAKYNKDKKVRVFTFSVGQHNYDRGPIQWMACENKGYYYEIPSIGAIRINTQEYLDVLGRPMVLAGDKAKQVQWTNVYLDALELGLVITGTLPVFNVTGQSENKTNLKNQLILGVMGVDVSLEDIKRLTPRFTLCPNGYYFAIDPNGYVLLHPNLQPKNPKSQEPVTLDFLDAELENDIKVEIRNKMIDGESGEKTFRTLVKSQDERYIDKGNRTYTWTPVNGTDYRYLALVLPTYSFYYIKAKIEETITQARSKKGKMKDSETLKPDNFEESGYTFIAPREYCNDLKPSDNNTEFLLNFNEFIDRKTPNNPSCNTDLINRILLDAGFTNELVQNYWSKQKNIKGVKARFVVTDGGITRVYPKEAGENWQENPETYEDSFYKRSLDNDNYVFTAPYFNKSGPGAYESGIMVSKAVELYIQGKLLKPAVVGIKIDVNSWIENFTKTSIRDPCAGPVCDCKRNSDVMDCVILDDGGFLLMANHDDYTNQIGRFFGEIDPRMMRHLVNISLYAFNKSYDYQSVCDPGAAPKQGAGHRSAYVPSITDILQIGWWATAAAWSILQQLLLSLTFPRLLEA
T1 sequence (P54290 946-1091 partner limits assumed): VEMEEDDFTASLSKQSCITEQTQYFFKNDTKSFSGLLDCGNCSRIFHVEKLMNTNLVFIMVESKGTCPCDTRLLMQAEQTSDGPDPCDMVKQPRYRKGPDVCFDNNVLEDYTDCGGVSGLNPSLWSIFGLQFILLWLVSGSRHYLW
T1 sequence (P54283 whole entry partner): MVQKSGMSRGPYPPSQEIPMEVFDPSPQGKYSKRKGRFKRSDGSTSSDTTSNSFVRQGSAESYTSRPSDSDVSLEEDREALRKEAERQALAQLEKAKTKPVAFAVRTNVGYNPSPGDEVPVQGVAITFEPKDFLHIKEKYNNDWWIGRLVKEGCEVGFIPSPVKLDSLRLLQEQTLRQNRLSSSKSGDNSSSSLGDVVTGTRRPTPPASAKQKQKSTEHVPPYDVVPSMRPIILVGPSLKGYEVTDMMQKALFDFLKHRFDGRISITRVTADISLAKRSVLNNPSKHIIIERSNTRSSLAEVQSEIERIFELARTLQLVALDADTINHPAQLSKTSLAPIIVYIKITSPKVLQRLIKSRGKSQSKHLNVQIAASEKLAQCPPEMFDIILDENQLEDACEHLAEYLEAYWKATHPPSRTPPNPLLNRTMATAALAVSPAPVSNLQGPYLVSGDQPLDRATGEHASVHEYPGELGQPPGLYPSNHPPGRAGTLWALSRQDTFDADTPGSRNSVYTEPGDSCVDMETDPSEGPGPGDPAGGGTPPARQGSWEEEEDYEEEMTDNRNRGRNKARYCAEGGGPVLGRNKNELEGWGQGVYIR
T1 sequence (P97707 whole entry partner): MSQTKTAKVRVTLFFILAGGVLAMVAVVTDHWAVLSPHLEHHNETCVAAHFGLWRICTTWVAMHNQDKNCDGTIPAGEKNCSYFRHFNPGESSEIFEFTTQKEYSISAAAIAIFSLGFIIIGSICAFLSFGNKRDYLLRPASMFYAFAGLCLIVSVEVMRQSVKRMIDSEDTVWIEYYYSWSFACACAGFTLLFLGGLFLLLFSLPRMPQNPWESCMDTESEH

## CCOC(=O)C1=C(COCCOCCN)NC(C)=C(C(=O)OC)C1c1cccc(Cl)c1Cl (racemic) [EXAMPLE 6, (4R,S)-2-{[2-(2-Aminoethoxy)ethoxy]methyl}-4-(2,3-dichlorophenyl)-3-ethoxycarbonyl-5-methoxycarbonyl-6-methyl-1,4-dihydropyridine]
[1]; 0.5 mg/kg
  Mean arterial pressure after treatment, Δ mm Hg, 4 h: -20 mm Hg
  Mean arterial pressure after treatment, Δ mm Hg, 7 h: -29 mm Hg
  Mean arterial pressure after treatment, Δ mm Hg, 24 h: -11 mm Hg
[1]; 1.0 mg/kg
  Mean arterial pressure after treatment, Δ mm Hg, 4 h: -40 mm Hg
  Mean arterial pressure after treatment, Δ mm Hg, 7 h: -44 mm Hg
  Mean arterial pressure after treatment, Δ mm Hg, 24 h: -49 mm Hg
[2]; day 1
  Systolic arterial pressure Δ(mm Hg) 24 h after the last administration of the products, D1: -22 mm Hg
[2]; day 2
  Systolic arterial pressure Δ(mm Hg) 24 h after the last administration of the products, D2: -18 mm Hg
[2]; day 4
  Systolic arterial pressure Δ(mm Hg) 24 h after the last administration of the products, D4: -17 mm Hg
[2]; day 7
  Systolic arterial pressure Δ(mm Hg) 24 h after the last administration of the products, D7: -31 mm Hg
[3]
  Systolic blood pressure changes (ΔmmHg) after treatment, 1H 30 min: -11 ± 3 mmHg
  Systolic blood pressure changes (ΔmmHg) after treatment, 3H: -5 ± 3 mmHg
  Systolic blood pressure changes (ΔmmHg) after treatment, 6H: -5 ± 2 mmHg
Rat aorta
  IC50: 5 nM
[4]
  Ki: 8.2 ± 1.7 nM
[5]; 1 mg/kg
  Systolic arterial pressure after treatment, Δ mm Hg, 4 h: -14 mm Hg
  Systolic arterial pressure after treatment, Δ mm Hg, 6 h: -17 mm Hg
  Systolic arterial pressure after treatment, Δ mm Hg, 24 h: -17 mm Hg
[5]; 3 mg/kg
  Systolic arterial pressure after treatment, Δ mm Hg, 4 h: -52 mm Hg
  Systolic arterial pressure after treatment, Δ mm Hg, 6 h: -55 mm Hg
  Systolic arterial pressure after treatment, Δ mm Hg, 24 h: -36 mm Hg

## CCOC(=O)C1=C(COCCOCCN)NC(C)=C(C(=O)OC)C1c1cccc(Cl)c1Cl (single isomer, unassigned; (-)) [EXAMPLE 50, (-)-2-{[2-(2-Aminoethoxy)ethoxy]methyl}-4-(2,3-dichlorophenyl)-3-ethoxycarbonyl-5-methoxycarbonyl-6-methyl-1,4-dihydropyridine]
[3]
  Systolic blood pressure changes (ΔmmHg) after treatment, 1H 30 min: -16 ± 2 mmHg
  Systolic blood pressure changes (ΔmmHg) after treatment, 3H: -18 ± 2 mmHg
  Systolic blood pressure changes (ΔmmHg) after treatment, 6H: -21 ± 5 mmHg
[3]; same dose, six hours after treatment, versus racemate
  activity compared with its racemate six hours after treatment: approximately 4 times
[3]; versus racemate
  activity compared with its racemate, in words: more potent and sustained even better over a period of time
[4]; compound of example 50 versus its racemate
  affinity for the dihydropyridine sites compared with its racemate: 30 times
[4]
  Ki: 0.28 ± 0.15 nM
[6]
  superiority compared with its racemate in preventing a calcium-induced vascular contraction: more than double
